Test results published in patent publication US9694016B2 (Novartis AG, priority 2013, dated 2017).

target: b-Raf (V600E) (Homo sapiens (Human), UniProt P15056, V600E); conditions: read-out: b-Raf IC-50
Sequence (P15056 whole entry V600E): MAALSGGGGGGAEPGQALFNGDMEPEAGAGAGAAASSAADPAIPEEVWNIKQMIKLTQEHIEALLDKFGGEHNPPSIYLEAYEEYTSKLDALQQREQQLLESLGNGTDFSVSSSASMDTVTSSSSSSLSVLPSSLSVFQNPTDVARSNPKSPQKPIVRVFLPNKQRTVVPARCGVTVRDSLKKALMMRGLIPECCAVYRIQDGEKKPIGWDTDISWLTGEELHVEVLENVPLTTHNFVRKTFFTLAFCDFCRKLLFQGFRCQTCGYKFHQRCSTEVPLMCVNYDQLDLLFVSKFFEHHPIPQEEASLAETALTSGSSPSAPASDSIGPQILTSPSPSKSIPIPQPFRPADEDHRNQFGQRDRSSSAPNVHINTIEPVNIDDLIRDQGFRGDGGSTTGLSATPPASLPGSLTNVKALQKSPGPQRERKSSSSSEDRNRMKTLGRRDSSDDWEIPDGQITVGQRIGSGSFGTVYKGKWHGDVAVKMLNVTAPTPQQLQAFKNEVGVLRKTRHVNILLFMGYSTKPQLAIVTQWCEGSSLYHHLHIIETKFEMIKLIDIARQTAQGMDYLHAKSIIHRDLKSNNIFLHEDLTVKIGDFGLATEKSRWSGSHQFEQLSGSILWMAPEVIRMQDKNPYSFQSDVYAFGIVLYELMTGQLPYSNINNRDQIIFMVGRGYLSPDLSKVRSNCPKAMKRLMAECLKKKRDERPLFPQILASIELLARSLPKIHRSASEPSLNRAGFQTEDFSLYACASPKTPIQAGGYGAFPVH

SMILES	IC50 [nM]
CCOc1nnc(-c2cc(NC(=O)c3ccc(CNC)c(C(F)(F)F)c3)ccc2C)cc1N1CCOCC1 [Example 574, N-(3-(6-ethoxy-5-morpholinopyridazin-3-yl)-4-methylphenyl)-4-((methylamino)methyl)-3-(trifluoromethyl)benzamide]	2.2

same assay, conditions: read-out: b-Raf IC-50; AlphaScreen, 60 min pre-incubation, 3 hours reaction

SMILES	IC50 [nM]
COc1ncc(-c2cc(NC(=O)c3ccnc(S(C)(=O)=O)c3)ccc2C)nc1N1CCOCC1 [Example 546, N-(3-(5-methoxy-6-morpholinopyrazin-2-yl)-4-methylphenyl)-2-(methylsulfonyl)isonicotinamide]	5
CCC(F)(F)c1cc(C(=O)Nc2ccc(C)c(-c3cc(N4CCOCC4)c(OC)nn3)c2)ccn1 [Example 549, 2-(1,1-difluoropropyl)-N-(3-(6-methoxy-5-morpholinopyridazin-3-yl)-4-methylphenyl)isonicotinamide]	2.1
COc1nnc(-c2cc(NC(=O)c3ccnc(C4CC4)c3)ccc2C)cc1N1CCOCC1 [Example 550, 2-cyclopropyl-N-(3-(6-methoxy-5-morpholinopyridazin-3-yl)-4-methylphenyl)isonicotinamide]	1.2
COc1nnc(-c2cc(NC(=O)c3cnnc(C(C)(C)C#N)c3)ccc2C)cc1N1CCOCC1 [Example 557, 6-(2-cyanopropan-2-yl)-N-(3-(6-methoxy-5-morpholinopyridazin-3-yl)-4-methylphenyl)pyridazine-4-carboxamide]	5.4
CCOc1nnc(-c2cc(NC(=O)c3ccnc(C4CC4)c3)ccc2C)cc1N1CCOCC1 [Example 563, 2-cyclopropyl-N-(3-(6-ethoxy-5-morpholinopyridazin-3-yl)-4-methylphenyl)isonicotinamide]	0.6
CCOc1nnc(-c2cc(NC(=O)c3ccnc(C(C)(F)F)c3)ccc2C)cc1N1CCOCC1 [Example 565, 2-(1,1-difluoroethyl)-N-(3-(6-ethoxy-5-morpholinopyridazin-3-yl)-4-methylphenyl)isonicotinamide]	1.3
CCOc1nnc(-c2cc(NC(=O)c3cnnc(C(C)(C)C#N)c3)ccc2C)cc1N1CCOCC1 [Example 567, 6-(2-cyanopropan-2-yl)-N-(3-(6-ethoxy-5-morpholinopyridazin-3-yl)-4-methylphenyl)pyridazine-4-carboxamide]	2
CCOc1nnc(-c2cc(NC(=O)c3ccnc(C4(C#N)CC4)c3)ccc2C)cc1N1CCOCC1 [Example 568, 2-(1-cyanocyclopropyl)-N-(3-(6-ethoxy-5-morpholinopyridazin-3-yl)-4-methylphenyl)isonicotinamide]	0.7
CCOc1nnc(-c2cc(NC(=O)c3ccnc(C(C)(C)O)c3)ccc2C)cc1N1CCOCC1 [Example 569, N-(3-(6-ethoxy-5-morpholinopyridazin-3-yl)-4-methylphenyl)-2-(2-hydroxypropan-2-yl)isonicotinamide]	2.8
CCOc1nnc(-c2cc(NC(=O)c3cnnc(C(F)(F)F)c3)ccc2C)cc1N1CCOCC1 [Example 570, N-(3-(6-ethoxy-5-morpholinopyridazin-3-yl)-4-methylphenyl)-6-(trifluoromethyl)pyridazine-4-carboxamide]	0.8
CCOc1nnc(-c2cc(NC(=O)c3cccc(C(F)(F)F)c3)cnc2C)cc1N1CCOC[C@@H]1C [Example 571, (S)—N-(5-(6-ethoxy-5-(3-methylmorpholino)pyridazin-3-yl)-6-methylpyridin-3-yl)-3-(trifluoromethyl)benzamide]	2.5
CCOc1nnc(-c2cc(NC(=O)c3ccnc(C(C)(C)C#N)c3)ccc2C)cc1N1CCOC[C@@H]1C [Example 572, (S)-2-(2-cyanopropan-2-yl)-N-(3-(6-ethoxy-5-(3-methylmorpholino)pyridazin-3-yl)-4-methylphenyl)isonicotinamide]	3.8
CCOc1nnc(-c2cc(NC(=O)c3ccc(CN(C)C)c(C(F)(F)F)c3)ccc2C)cc1N1CCOCC1 [Example 576, 4-((dimethylamino)methyl)-N-(3-(6-ethoxy-5-morpholinopyridazin-3-yl)-4-methylphenyl)-3-(trifluoromethyl)benzamide]	3.5
Cc1ccc(NC(=O)c2ccnc(C(C)(F)F)c2)cc1-c1cc(N2CCOCC2)c(OC2CCOCC2)nn1 [Example 579, 2-(1,1-difluoroethyl)-N-(4-methyl-3-(5-morpholino-6-((tetrahydro-2H-pyran-4-yl)oxy)pyridazin-3-yl)phenyl)isonicotinamide]	0.6
Cc1ccc(NC(=O)c2cc(C(F)(F)F)ccn2)cc1-c1cc(N2CCOCC2)c(OC2CCOCC2)nn1 [Example 580, N-(4-methyl-3-(5-morpholino-6-((tetrahydro-2H-pyran-4-yl)oxy)pyridazin-3-yl)phenyl)-4-(trifluoromethyl)picolinamide]	0.5
Cc1ccc(NC(=O)c2ccnc(S(C)(=O)=O)c2)cc1-c1cc(N2CCOCC2)c(OC2CCOCC2)nn1 [Example 582, N-(4-methyl-3-(5-morpholino-6-((tetrahydro-2H-pyran-4-yl)oxy)pyridazin-3-yl)phenyl)-2-(methylsulfonyl)isonicotinamide]	0.8
Cc1ccc(NC(=O)c2cnnc(C(C)(C)C#N)c2)cc1-c1cc(N2CCOCC2)c(OC2CCOCC2)nn1 [Example 583, 6-(2-cyanopropan-2-yl)-N-(4-methyl-3-(5-morpholino-6-((tetrahydro-2H-pyran-4-yl)oxy)pyridazin-3-yl)phenyl)pyridazine-4-carboxamide]	1.3

The next lines start with the values.

IC50 [nM]	SMILES
3.9	COc1nnc(-c2cc(NC(=O)c3ccnc(C(C)(C)O)c3)ccc2C)cc1N1CCOCC1 [Example 556, 2-(2-hydroxypropan-2-yl)-N-(3-(6-methoxy-5-morpholinopyridazin-3-yl)-4-methylphenyl)isonicotinamide]
3	COc1nnc(-c2cc(NC(=O)c3ccnc(C(C)(C)F)c3)ccc2C)cc1N1CCOCC1 [Example 552, 2-(2-fluoropropan-2-yl)-N-(3-(6-methoxy-5-morpholinopyridazin-3-yl)-4-methylphenyl)isonicotinamide]
2.9	CCNCc1ccc(C(=O)Nc2ccc(C)c(-c3cc(N4CCOCC4)c(OCC)nn3)c2)cc1C(F)(F)F [Example 575, N-(3-(6-ethoxy-5-morpholinopyridazin-3-yl)-4-methylphenyl)-4-((ethylamino)methyl)-3-(trifluoromethyl)benzamide]
2.2	Cc1ccc(NC(=O)c2ccnc(C(C)(C)O)c2)cc1-c1cc(N2CCOCC2)c(OC2CCOCC2)nn1 [Example 581, 2-(2-hydroxypropan-2-yl)-N-(4-methyl-3-(5-morpholino-6-((tetrahydro-2H-pyran-4-yl)oxy)pyridazin-3-yl)phenyl)isonicotinamide]
2.1	COc1nnc(-c2cc(NC(=O)c3ccnc(C(C)(C)C#N)c3)ccc2C)cc1N1CCOCC1 [Example 558, 2-(2-cyanopropan-2-yl)-N-(3-(6-methoxy-5-morpholinopyridazin-3-yl)-4-methylphenyl)isonicotinamide]
1.3	CCOc1nnc(-c2cc(NC(=O)c3ccnc(C(C)(C)F)c3)ccc2C)cc1N1CCOCC1 [Example 564, N-(3-(6-ethoxy-5-morpholinopyridazin-3-yl)-4-methylphenyl)-2-(2-fluoropropan-2-yl)isonicotinamide]
1.2	COc1nnc(-c2cc(NC(=O)c3cnnc(C(F)(F)F)c3)ccc2C)cc1N1CCOCC1 [Example 551, N-(3-(6-methoxy-5-morpholinopyridazin-3-yl)-4-methylphenyl)-6-(trifluoromethyl)pyridazine-4-carboxamide]
1.2	COc1nnc(-c2cc(NC(=O)c3cccc(S(C)(=O)=O)c3)ccc2C)cc1N1CCOCC1 [Example 553, N-(3-(6-methoxy-5-morpholinopyridazin-3-yl)-4-methylphenyl)-3-(methylsulfonyl)benzamide]
1.2	Cc1ccc(NC(=O)c2ccnc(C(C)(C)C#N)c2)cc1-c1cc(N2CCOCC2)c(OC2CCOCC2)nn1 [Example 584, 2-(2-cyanopropan-2-yl)-N-(4-methyl-3-(5-morpholino-6-((tetrahydro-2H-pyran-4-yl)oxy)pyridazin-3-yl)phenyl)isonicotinamide]
1.1	COc1nnc(-c2cc(NC(=O)c3ccnc(C(C)(F)F)c3)ccc2C)cc1N1CCOCC1 [Example 548, 2-(1,1-difluoroethyl)-N-(3-(6-methoxy-5-morpholinopyridazin-3-yl)-4-methylphenyl)isonicotinamide]
1	COc1nnc(-c2cc(NC(=O)c3ccnc(C(F)(F)F)c3)ccc2C)cc1N1CCOCC1 [Example 547, N-(3-(6-methoxy-5-morpholinopyridazin-3-yl)-4-methylphenyl)-2-(trifluoromethyl)isonicotinamide]
1	CCOc1nnc(-c2cc(NC(=O)c3ccnc(C(F)(F)CC)c3)ccc2C)cc1N1CCOCC1 [Example 560, 2-(1,1-difluoropropyl)-N-(3-(6-ethoxy-5-morpholinopyridazin-3-yl)-4-methylphenyl)isonicotinamide]
0.8	CCOc1nnc(-c2cc(NC(=O)c3ccnc(C(C)(C)C#N)c3)ccc2C)cc1N1CCOCC1 [Example 573, 2-(2-cyanopropan-2-yl)-N-(3-(6-ethoxy-5-morpholinopyridazin-3-yl)-4-methylphenyl)isonicotinamide]
0.8	Cc1ccc(NC(=O)c2ccnc(C(C)(C)F)c2)cc1-c1cc(N2CCOCC2)c(OC2CCOCC2)nn1 [Example 578, 2-(2-fluoropropan-2-yl)-N-(4-methyl-3-(5-morpholino-6-((tetrahydro-2H-pyran-4-yl)oxy)pyridazin-3-yl)phenyl)isonicotinamide]
0.6	CCOc1nnc(-c2cc(NC(=O)c3ccnc(C(F)F)c3)ccc2C)cc1N1CCOCC1 [Example 562, 2-(difluoromethyl)-N-(3-(6-ethoxy-5-morpholinopyridazin-3-yl)-4-methylphenyl)isonicotinamide]
0.3	CCOc1nnc(-c2cc(NC(=O)c3cccc(C(F)F)c3)ccc2C)cc1N1CCOCC1 [Example 561, 3-(difluoromethyl)-N-(3-(6-ethoxy-5-morpholinopyridazin-3-yl)-4-methylphenyl)benzamide]
